{"source": "paper PMC4012456", "about": "(Marine Drugs, 2014)", "key": {"murine muscle-type nAChR": {"biological_target": "T1, murine muscle-type nAChR (Mus musculus, UniProt P02716+P04756+P09690+P20782)", "T1 construct": "expressed in transfected cells; host or cells: Xenopus laevis oocytes injected with plasmid DNA (CMV promoter)", "T1 sequence (P04756 21-457)": "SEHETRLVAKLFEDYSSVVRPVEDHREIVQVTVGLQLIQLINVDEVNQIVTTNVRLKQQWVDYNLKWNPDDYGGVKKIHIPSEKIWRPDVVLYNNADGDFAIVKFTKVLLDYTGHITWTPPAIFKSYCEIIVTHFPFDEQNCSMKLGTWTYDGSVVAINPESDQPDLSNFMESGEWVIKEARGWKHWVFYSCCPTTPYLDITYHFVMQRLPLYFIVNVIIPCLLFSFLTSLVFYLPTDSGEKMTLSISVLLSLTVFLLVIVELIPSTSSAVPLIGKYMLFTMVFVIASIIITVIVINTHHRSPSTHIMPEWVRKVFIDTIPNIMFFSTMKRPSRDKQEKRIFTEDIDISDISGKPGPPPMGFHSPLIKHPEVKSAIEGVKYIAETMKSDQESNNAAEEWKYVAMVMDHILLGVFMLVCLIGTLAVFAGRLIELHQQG", "T1 sequence (P09690 24-501)": "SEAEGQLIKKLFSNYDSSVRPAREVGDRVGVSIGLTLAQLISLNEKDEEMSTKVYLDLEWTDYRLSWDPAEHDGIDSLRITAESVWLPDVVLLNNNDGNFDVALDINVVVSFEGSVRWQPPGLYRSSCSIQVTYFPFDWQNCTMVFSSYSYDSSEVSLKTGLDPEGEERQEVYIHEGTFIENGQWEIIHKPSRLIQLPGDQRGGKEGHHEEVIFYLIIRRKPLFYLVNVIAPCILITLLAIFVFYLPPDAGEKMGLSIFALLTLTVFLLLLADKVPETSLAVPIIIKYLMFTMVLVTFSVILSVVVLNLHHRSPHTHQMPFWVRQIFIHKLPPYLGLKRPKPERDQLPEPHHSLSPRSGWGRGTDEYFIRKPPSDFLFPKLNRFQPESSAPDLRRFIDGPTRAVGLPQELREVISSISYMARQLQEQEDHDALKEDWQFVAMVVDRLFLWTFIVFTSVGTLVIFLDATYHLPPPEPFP", "T1 sequence (P02716 25-520)": "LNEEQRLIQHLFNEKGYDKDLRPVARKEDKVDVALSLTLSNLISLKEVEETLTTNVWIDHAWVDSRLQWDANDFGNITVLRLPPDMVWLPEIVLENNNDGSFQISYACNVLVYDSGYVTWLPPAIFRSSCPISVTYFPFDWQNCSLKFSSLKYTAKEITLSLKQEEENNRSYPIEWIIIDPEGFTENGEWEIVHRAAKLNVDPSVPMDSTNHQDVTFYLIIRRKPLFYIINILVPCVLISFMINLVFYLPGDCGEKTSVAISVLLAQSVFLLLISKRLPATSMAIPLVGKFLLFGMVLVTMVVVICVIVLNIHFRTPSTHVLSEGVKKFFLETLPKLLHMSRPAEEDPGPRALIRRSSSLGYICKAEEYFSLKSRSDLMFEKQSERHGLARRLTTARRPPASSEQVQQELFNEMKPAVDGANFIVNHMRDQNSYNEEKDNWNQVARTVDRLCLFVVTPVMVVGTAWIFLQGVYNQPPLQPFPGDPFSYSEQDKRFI", "T1 sequence (P20782 21-493)": "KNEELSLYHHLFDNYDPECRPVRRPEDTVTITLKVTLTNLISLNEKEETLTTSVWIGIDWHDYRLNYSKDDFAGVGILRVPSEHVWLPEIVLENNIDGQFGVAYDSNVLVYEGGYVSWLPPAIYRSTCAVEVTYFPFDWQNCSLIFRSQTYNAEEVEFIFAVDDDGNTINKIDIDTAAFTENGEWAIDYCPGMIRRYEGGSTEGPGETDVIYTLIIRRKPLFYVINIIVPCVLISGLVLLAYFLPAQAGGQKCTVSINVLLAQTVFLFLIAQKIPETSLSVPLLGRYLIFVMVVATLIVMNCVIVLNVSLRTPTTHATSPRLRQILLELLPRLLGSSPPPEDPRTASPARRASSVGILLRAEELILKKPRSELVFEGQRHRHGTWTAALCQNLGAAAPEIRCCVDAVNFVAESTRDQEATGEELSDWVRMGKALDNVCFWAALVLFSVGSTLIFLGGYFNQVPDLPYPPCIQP", "assay": "electrophysiology on muscle nAChR expressed in Xenopus laevis oocytes", "type": "cell-based", "conditions": "for inhibition of agonist-evoked current on muscle nAChR (in words): 10 μM acetylcholine; for reversibility of inhibition of muscle nAChR: wash out"}, "L. stagnalis AChBP": {"biological_target": "L. stagnalis AChBP (Lymnaea stagnalis, UniProt P58154)", "sequence (P58154 20-229 limits assumed)": "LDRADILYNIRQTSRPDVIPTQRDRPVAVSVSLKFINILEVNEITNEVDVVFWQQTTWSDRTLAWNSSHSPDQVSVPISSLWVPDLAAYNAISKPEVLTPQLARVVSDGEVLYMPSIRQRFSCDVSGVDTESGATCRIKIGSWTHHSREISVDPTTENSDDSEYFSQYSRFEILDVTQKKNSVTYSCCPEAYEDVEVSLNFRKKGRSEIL", "set-up": "method as in PMID 18338186", "conditions": "read-out: Kd, affinity to L. stagnalis AChBP; quenching of intrinsic tryptophan fluorescence; cited from earlier work"}, "[1]": {"conditions": "10 μM compound, Xenopus oocytes"}}, "note": "Structures can show the parent of a compound that is named as a salt. Where two headings read alike, the source gives them in different places."}
{"smiles": "C[C@@H](N)[C@H](O)CCCCCCCC(=O)CCCCCCCCCCCCCC[C@@H](O[C@@H]1O[C@H](CO)[C@H](O)[C@H](O)[C@H]1O)[C@@H](C)N", "note": "[Compound 1, Rhizochalin]", "values": [{"measurement": "inhibition of agonist-evoked current on muscle nAChR (in words)", "setting": "murine muscle-type nAChR; [1]", "value": "almost completely"}, {"measurement": "reversibility of inhibition of muscle nAChR", "setting": "murine muscle-type nAChR; 10 μM compound", "value": "very slowly reversible"}]}
{"smiles": "C[C@@H](N)[C@H](O)CCCCCCCCCCCCCCC(=O)CCCCCCC[C@@H](O)[C@@H](C)N", "note": "[Compound 2, aglycone of rhizochalin]", "values": [{"measurement": "IC50", "setting": "murine muscle-type nAChR", "value": "2 ± 0.3", "unit": "µM"}, {"measurement": "inhibition of agonist-evoked current on muscle nAChR (in words)", "setting": "murine muscle-type nAChR; [1]", "value": "almost completely"}, {"measurement": "reversibility of inhibition of muscle nAChR", "setting": "murine muscle-type nAChR; 10 μM compound", "value": "very slowly reversible"}]}
{"smiles": "C[C@@H]1C[C@@H]2c3cccc4[nH]c(Br)c(c34)C[C@H]2N(C)C1", "note": "[Compound 3, pibocin]", "values": [{"measurement": "IC50", "setting": "murine muscle-type nAChR", "value": "3.7 ± 0.2", "unit": "µM"}, {"measurement": "inhibition of agonist-evoked current on muscle nAChR (in words)", "setting": "murine muscle-type nAChR; [1]", "value": "moderate activity"}]}
{"smiles": "COc1cc(CCN)c2c(c1OC)SSSSS2", "note": "[Compound 4, Varacin]", "values": [{"measurement": "IC50", "setting": "murine muscle-type nAChR", "value": "8.7 ± 0.4", "unit": "µM"}, {"measurement": "inhibition of agonist-evoked current on muscle nAChR (in words)", "setting": "murine muscle-type nAChR; [1]", "value": "moderate activity"}]}
{"smiles": "C[N+]1=C2C=C(N)C(=O)c3[nH]cc(c32)CC1", "note": "[Compound 5, makaluvamine C]", "values": [{"measurement": "inhibition of agonist-evoked current on muscle nAChR (in words)", "setting": "murine muscle-type nAChR; [1]", "value": "weaker but still reproducible effect"}]}
{"smiles": "Cn1cc2c3c1C(=O)C(N/C=C/c1ccc(O)cc1)=CC3=[N+](C)CC2", "note": "[Compound 6, makaluvamine G]", "values": [{"measurement": "IC50", "setting": "murine muscle-type nAChR", "value": "3.3 ± 0.3", "unit": "µM"}, {"measurement": "inhibition of agonist-evoked current on muscle nAChR (in words)", "setting": "murine muscle-type nAChR; [1]", "value": "almost completely"}, {"measurement": "receptor recovery time from the end of compound application", "setting": "murine muscle-type nAChR; 10 μM compound, muscle nAChR", "value": 5, "unit": "min"}, {"measurement": "reversibility of inhibition of muscle nAChR", "setting": "murine muscle-type nAChR; 10 μM compound", "value": "fast off-set rate"}]}
{"smiles": "NC1=N/C(=C2/CCNC(=O)c3[nH]ccc32)C(=O)N1", "note": "[Compound 7, Debromohymenialdesine]", "values": [{"measurement": "inhibition of agonist-evoked current on muscle nAChR (in words)", "setting": "murine muscle-type nAChR; [1]", "value": "extremely weak, if any, activity"}]}
{"smiles": "C[n+]1ccccc1-c1cccc[n+]1C", "note": "[Compound 8, 1,1′-Dimethyl-[2,2′]-bipyridyldiium salt]", "values": [{"measurement": "inhibition of agonist-evoked current on muscle nAChR (in words)", "setting": "murine muscle-type nAChR; [1]", "value": "extremely weak, if any, activity"}]}
{"smiles": "O=C1NCCc2cncn21", "note": "[Compound 10, 7,8-Dihydroimidazo-[1,5-c]-pyrimidin-5(6H)-one]", "values": [{"measurement": "inhibition of agonist-evoked current on muscle nAChR (in words)", "setting": "murine muscle-type nAChR; [1]", "value": "extremely weak, if any, activity"}]}
{"smiles": "Cn1c(=N)c2[nH]cnc2n(C)c1=O", "note": "[Compound 11, 1,3-Dimethylisoguaniniium hydrochloride]", "values": [{"measurement": "inhibition of agonist-evoked current on muscle nAChR (in words)", "setting": "murine muscle-type nAChR; [1]", "value": "extremely weak, if any, activity"}]}
{"smiles": "COc1cc2ccnc3c2c(c1OC)NC=C3", "note": "[Compound 12, Aaptamine]", "values": [{"measurement": "inhibition of agonist-evoked current on muscle nAChR (in words)", "setting": "murine muscle-type nAChR; [1]", "value": "moderate activity"}]}
{"smiles": "CC/C=C/[C@@H]1CC[C@]2(C[C@H]3CC[C@H]4[C@@H](C(=O)OC(CC)CCCCCCCCCCCCC[C@@H]5O[C@](O)(CCN)[C@H](O)N(CCCN)C5=O)[C@@]5(CCC[C@H](C)O5)NC(=N2)N34)O1", "note": "(some centres unmarked) [Compound 13, monanchocidin]", "values": [{"measurement": "inhibition of agonist-evoked current on muscle nAChR (in words)", "setting": "murine muscle-type nAChR; [1]", "value": "almost completely"}, {"measurement": "reversibility of inhibition of muscle nAChR", "setting": "murine muscle-type nAChR; 10 μM compound", "value": "very slowly reversible"}, {"measurement": "IC50", "setting": "murine muscle-type nAChR; read-out: IC50, current inhibition on muscle nAChR, acetylcholine-evoked current (10 μM acetylcholine), Xenopus oocytes", "value": "4.1 ± 0.6", "unit": "µM"}]}
{"smiles": "CN/C(=N\\[N+](=O)[O-])NCc1cnc(Cl)s1", "note": "[clothianidin]", "values": [{"measurement": "Kd", "setting": "L. stagnalis AChBP", "value": 7.3, "unit": "µM"}]}
